According to paper PMC7026418, “The kinase polypharmacology landscape of clinical PARP inhibitors” (Scientific Reports, 2020):
Like-named read-outs stand apart in the source and are kept apart here. Each block holds one compound with its values, some of them ahead of it.

Experiments:
Assay in all cases: biochemical
Parameters in all cases: DiscoveRx KINOMEscan active site-directed competition binding; percent of control kinase bound to immobilised ligand
DCAMKL3 = target: T1, DCAMKL3 (Homo sapiens, UniProt Q9C098)
T1 construct: gene DCLK3
T1 sequence (Q9C098 1-648): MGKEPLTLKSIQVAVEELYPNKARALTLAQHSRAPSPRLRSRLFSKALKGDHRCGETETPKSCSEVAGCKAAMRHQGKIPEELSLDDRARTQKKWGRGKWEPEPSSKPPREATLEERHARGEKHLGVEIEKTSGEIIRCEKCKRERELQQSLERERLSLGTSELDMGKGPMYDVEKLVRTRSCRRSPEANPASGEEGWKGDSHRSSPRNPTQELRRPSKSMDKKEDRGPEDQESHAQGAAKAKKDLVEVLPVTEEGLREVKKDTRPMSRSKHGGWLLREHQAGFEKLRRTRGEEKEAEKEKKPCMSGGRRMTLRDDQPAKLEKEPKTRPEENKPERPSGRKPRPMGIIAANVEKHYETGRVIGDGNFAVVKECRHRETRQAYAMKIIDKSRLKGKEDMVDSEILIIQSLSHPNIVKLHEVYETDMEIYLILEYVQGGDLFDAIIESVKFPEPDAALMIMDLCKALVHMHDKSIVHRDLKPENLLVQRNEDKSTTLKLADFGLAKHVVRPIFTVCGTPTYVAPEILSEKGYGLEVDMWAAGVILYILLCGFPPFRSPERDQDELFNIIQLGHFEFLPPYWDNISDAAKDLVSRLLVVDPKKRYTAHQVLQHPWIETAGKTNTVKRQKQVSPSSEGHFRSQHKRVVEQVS

TNK2 = TNK2 (Homo sapiens, UniProt Q07912)
TNK2, sequence (Q07912 whole entry): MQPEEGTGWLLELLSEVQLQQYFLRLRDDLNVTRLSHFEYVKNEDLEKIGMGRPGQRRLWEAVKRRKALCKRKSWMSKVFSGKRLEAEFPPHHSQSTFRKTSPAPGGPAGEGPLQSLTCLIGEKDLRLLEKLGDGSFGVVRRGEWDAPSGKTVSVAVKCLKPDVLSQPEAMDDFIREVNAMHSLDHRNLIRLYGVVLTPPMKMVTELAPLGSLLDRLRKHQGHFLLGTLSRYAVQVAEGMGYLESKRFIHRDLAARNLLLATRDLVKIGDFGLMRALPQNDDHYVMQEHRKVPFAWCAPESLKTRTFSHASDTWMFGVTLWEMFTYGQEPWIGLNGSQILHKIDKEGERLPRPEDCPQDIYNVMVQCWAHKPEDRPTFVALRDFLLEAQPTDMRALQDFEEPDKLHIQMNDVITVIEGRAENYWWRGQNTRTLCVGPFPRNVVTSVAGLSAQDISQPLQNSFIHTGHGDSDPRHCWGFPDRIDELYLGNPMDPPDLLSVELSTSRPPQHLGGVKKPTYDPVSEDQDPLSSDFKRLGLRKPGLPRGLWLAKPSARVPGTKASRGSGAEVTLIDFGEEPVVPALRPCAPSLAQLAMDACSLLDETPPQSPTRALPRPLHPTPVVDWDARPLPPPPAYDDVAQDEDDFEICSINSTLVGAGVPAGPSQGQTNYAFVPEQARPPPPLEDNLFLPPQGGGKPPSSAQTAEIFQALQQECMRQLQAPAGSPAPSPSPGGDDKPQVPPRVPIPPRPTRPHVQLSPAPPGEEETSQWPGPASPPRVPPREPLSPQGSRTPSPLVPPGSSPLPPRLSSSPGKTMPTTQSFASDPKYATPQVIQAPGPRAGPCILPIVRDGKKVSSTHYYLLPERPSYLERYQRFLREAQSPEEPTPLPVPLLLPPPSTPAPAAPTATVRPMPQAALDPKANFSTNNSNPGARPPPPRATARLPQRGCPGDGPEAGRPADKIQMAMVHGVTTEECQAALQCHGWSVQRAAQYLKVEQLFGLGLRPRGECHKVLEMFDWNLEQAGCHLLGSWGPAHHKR

TGFBR1 = target: T2, TGFBR1 (Homo sapiens, UniProt P36897)
T2 sequence (P36897 1-503): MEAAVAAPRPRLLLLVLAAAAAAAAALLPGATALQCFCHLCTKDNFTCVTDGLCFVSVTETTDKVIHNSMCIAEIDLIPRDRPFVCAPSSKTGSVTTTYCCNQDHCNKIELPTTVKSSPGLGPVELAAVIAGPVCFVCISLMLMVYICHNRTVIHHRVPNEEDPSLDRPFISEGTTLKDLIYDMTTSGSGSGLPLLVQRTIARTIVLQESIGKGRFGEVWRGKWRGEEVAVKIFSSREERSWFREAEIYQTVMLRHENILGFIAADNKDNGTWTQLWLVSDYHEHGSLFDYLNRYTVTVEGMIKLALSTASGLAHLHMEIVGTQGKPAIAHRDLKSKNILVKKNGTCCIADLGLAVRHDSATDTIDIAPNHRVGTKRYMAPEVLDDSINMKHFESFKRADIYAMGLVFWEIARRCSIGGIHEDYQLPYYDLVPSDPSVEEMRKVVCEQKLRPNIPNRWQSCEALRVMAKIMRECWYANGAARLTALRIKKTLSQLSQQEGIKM

ASK2 = target: T3, ASK2 (Homo sapiens, UniProt O95382)
T3 construct: gene MAP3K6
T3 sequence (O95382 1-1288): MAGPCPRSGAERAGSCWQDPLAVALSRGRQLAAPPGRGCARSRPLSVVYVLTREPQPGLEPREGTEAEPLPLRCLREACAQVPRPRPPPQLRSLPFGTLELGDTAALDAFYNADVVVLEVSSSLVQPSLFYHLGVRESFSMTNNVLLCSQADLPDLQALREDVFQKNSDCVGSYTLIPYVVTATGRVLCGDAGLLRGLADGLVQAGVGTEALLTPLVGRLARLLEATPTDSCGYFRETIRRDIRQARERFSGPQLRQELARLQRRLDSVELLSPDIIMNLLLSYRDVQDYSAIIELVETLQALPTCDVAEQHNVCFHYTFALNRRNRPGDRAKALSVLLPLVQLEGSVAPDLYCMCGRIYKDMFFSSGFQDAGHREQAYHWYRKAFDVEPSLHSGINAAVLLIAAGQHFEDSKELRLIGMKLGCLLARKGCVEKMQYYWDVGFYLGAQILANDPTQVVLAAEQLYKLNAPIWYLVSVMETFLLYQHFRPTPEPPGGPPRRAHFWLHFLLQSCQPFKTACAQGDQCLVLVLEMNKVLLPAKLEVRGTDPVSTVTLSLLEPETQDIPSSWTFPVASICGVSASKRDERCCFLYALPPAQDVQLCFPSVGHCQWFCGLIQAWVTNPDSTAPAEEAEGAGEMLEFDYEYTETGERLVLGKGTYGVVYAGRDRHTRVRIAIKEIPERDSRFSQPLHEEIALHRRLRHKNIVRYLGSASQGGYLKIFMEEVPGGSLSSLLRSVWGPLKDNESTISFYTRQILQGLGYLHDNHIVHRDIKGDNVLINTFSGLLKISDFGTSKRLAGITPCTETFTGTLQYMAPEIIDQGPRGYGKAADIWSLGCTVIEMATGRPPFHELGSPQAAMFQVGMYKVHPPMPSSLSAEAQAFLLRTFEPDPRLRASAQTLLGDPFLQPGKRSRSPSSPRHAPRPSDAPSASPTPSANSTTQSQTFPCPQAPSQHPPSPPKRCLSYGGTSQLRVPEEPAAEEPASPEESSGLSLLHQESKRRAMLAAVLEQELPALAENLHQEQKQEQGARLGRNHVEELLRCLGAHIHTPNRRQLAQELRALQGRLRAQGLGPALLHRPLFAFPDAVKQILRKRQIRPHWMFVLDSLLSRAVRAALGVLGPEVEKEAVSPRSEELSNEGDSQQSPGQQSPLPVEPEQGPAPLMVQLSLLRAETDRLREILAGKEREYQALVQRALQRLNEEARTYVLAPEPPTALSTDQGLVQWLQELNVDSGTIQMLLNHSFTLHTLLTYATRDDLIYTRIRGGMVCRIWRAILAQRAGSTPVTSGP

CSNK1A1 = CSNK1A1 (Homo sapiens, UniProt P48729)
CSNK1A1, sequence (P48729 whole entry): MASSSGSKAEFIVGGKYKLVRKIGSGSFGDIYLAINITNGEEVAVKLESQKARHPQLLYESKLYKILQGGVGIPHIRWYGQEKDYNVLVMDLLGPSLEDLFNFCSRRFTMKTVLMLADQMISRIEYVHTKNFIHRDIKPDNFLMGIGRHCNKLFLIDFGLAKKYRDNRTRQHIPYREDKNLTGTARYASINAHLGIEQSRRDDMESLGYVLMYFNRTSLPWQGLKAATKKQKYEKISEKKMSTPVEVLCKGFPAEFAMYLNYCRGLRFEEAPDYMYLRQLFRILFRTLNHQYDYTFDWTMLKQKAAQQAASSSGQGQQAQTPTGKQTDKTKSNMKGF

[1] = read-out: Niraparib (MK-4827) / %Ctrl @ 10000nM
[2] = read-out: Rucaparib / %Ctrl @ 10000nM, binding competition, % of control
[3] = read-out: Olaparib / %Ctrl @ 10000nM
[4] = read-out: Talazoparib (BMN 673) / %Ctrl @ 10000nM

Compound: NC(=O)c1cccc2cn(-c3ccc([C@@H]4CCCNC4)cc3)nc12 [Niraparib]
percent of control binding at 10 µM (DCAMKL3; [1]): 85%
percent of control binding at 10 µM (TNK2; [1]): 91%
percent of control binding at 10 µM (TGFBR1; [1]): 98%
percent of control binding at 10 µM (ASK2; [1]): 98%
percent of control binding at 10 µM (CSNK1A1; [1]): 34%

percent of control binding at 10 µM (DCAMKL3; [2]): 44%
percent of control binding at 10 µM (TNK2; [2]): 100%
percent of control binding at 10 µM (TGFBR1; [2]): 98%
percent of control binding at 10 µM (ASK2; [2]): 77%
percent of control binding at 10 µM (CSNK1A1; [2]): 39%
Compound: CNCc1ccc(-c2[nH]c3cc(F)cc4c3c2CCNC4=O)cc1 [Rucaparib]

percent of control binding at 10 µM (DCAMKL3; [3]): 88%
percent of control binding at 10 µM (TNK2; [3]): 95%
percent of control binding at 10 µM (TGFBR1; [3]): 93%
percent of control binding at 10 µM (ASK2; [3]): 80%
percent of control binding at 10 µM (CSNK1A1; [3]): 81%
Compound: O=C(c1cc(Cc2n[nH]c(=O)c3ccccc23)ccc1F)N1CCN(C(=O)C2CC2)CC1 [Olaparib]

percent of control binding at 10 µM (DCAMKL3; [4]): 100%
percent of control binding at 10 µM (TNK2; [4]): 97%
percent of control binding at 10 µM (TGFBR1; [4]): 100%
percent of control binding at 10 µM (ASK2; [4]): 85%
percent of control binding at 10 µM (CSNK1A1; [4]): 73%
Compound: Cn1ncnc1[C@H]1c2n[nH]c(=O)c3cc(F)cc(c23)N[C@@H]1c1ccc(F)cc1 [Talazoparib]
